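Here, GI50 denotes the concentration required for 50% inhibition of growth. At the TGI there is no net growth.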
Columns and labels:
Assay in all cases: growth of human tumour cells (NCI), 384-well format
786-0 renal = system: 786-0 renal
A498 renal = system: A498 renal
A549 NSCLC = system: A549 NSCLC
ACHN renal = system: ACHN renal
BT-549 breast = system: BT-549 breast
CAKI-1 renal = system: CAKI-1 renal
CCRF-CEM leukemia = system: CCRF-CEM leukemia
COLO 205 colon = system: COLO 205 colon
DU-145 prostate = system: DU-145 prostate
EKVX NSCLC = system: EKVX NSCLC
HCC-2998 colon = system: HCC-2998 colon
HCT-15 colon = system: HCT-15 colon
HL-60(TB) leukemia = system: HL-60(TB) leukemia
HOP-62 NSCLC = system: HOP-62 NSCLC
HOP-92 NSCLC = system: HOP-92 NSCLC
HS 578T breast = system: HS 578T breast
HT29 colon = system: HT29 colon
IGROV1 ovarian = system: IGROV1 ovarian
K-562 leukemia = system: K-562 leukemia
KM12 colon = system: KM12 colon
LOX IMVI melanoma = system: LOX IMVI melanoma
M14 melanoma = system: M14 melanoma
MALME-3M melanoma = system: MALME-3M melanoma
MCF7 breast = system: MCF7 breast
MDA-MB-231 breast = system: MDA-MB-231 breast
MDA-MB-435 melanoma = system: MDA-MB-435 melanoma
MDA-MB-468 breast = system: MDA-MB-468 breast
MOLT-4 leukemia = system: MOLT-4 leukemia
NCI-H226 lung = system: NCI-H226 lung
NCI-H23 lung = system: NCI-H23 lung
NCI-H322M lung = system: NCI-H322M lung
NCI-H460 NSCLC = system: NCI-H460 NSCLC
NCI-H522 lung = system: NCI-H522 lung
NCI/ADR-RES ovarian = system: NCI/ADR-RES ovarian
OVCAR-3 ovarian = system: OVCAR-3 ovarian
OVCAR-4 ovarian = system: OVCAR-4 ovarian
OVCAR-5 ovarian = system: OVCAR-5 ovarian
OVCAR-8 ovarian = system: OVCAR-8 ovarian
PC-3 prostate = system: PC-3 prostate
RPMI-8226 leukemia = system: RPMI-8226 leukemia
RXF 393 renal = system: RXF 393 renal
SF-268 CNS = system: SF-268 CNS
SF-295 CNS = system: SF-295 CNS
SF-539 CNS = system: SF-539 CNS
SK-MEL-28 melanoma = system: SK-MEL-28 melanoma
SK-MEL-5 melanoma = system: SK-MEL-5 melanoma
SK-OV-3 ovarian = system: SK-OV-3 ovarian
SN12C renal = system: SN12C renal
SNB-19 CNS = system: SNB-19 CNS
SNB-75 CNS = system: SNB-75 CNS
SR leukemia = system: SR leukemia
SW-620 colon = system: SW-620 colon
T-47D breast = system: T-47D breast
TK-10 renal = system: TK-10 renal
U251 glioblastoma = system: U251 glioblastoma
UACC-257 melanoma = system: UACC-257 melanoma
UACC-62 melanoma = system: UACC-62 melanoma
UO-31 renal = system: UO-31 renal

Compound: COc1ccc(Br)cc1NC(=O)Nc1cccc2c1ccn2Cc1ccnc(N)c1
- GI50 ([…]-0 renal): 4.23 µM
- TGI (786-0 renal): 16.6 µM
- GI50 (A498 renal): 3.56 µM
- TGI (A498 renal): 13.5 µM
- GI50 (A549 NSCLC): 7.56 µM
- TGI (A549 NSCLC): 20.2 µM
- GI50 (ACHN renal): 7.08 µM
- TGI (ACHN renal): 20.3 µM
- GI50 (BT-549 breast): 9.64 µM
- TGI (BT-549 breast): 21.5 µM
- GI50 (CAKI-1 renal): 10.7 µM
- TGI (CAKI-1 renal): 22.8 µM
- GI50 (CCRF-CEM leukemia): 2490 nM
- TGI (CCRF-CEM leukemia): 5.33 µM
- GI50 (COLO 205 colon): 5.82 µM
- TGI (COLO 205 colon): 18.2 µM
- GI50 (DU-145 prostate): 12.9 µM
- TGI (DU-145 prostate): 27.9 µM
- GI50 (EKVX NSCLC): 8.67 µM
- TGI (EKVX NSCLC): 22 µM
- GI50 (HCC-2998 colon): 3.51 µM
- TGI (HCC-2998 colon): 8.43 µM
- GI50 (HCT-15 colon): 2020 nM
- TGI (HCT-15 colon): 3.63 µM
- GI50 (HL-60(TB) leukemia): 1870 nM
- TGI (HL-60(TB) leukemia): 4.64 µM
- GI50 (HOP-62 NSCLC): 11.7 µM
- TGI (HOP-62 NSCLC): 24.1 µM
- GI50 (HOP-92 NSCLC): 5.73 µM
- TGI (HOP-92 NSCLC): 18.3 µM
- GI50 (HS 578T breast): 6.06 µM
- TGI (HS 578T breast): 17.8 µM
- GI50 (HT29 colon): 2010 nM
- TGI (HT29 colon): 4.13 µM
- GI50 (IGROV1 ovarian): 11.3 µM
- TGI (IGROV1 ovarian): 23.6 µM
- GI50 (K-562 leukemia): 1470 nM
- TGI (K-562 leukemia): 2810 nM
- GI50 (KM12 colon): 2540 nM
- TGI (KM12 colon): 5.81 µM
- GI50 (LOX IMVI melanoma): 4.85 µM
- TGI (LOX IMVI melanoma): 15.2 µM
- GI50 (M14 melanoma): 6.29 µM
- TGI (M14 melanoma): 18.1 µM
- GI50 (MALME-3M melanoma): 7.13 µM
- TGI (MALME-3M melanoma): 19.9 µM
- GI50 (MCF7 breast): 5.26 µM
- TGI (MCF7 breast): 18.3 µM
- GI50 (MDA-MB-231 breast): 13.2 µM
- TGI (MDA-MB-231 breast): 26.1 µM
- GI50 (MDA-MB-435 melanoma): 10.9 µM
- TGI (MDA-MB-435 melanoma): 23 µM
- GI50 (MDA-MB-468 breast): 2810 nM
- TGI (MDA-MB-468 breast): 5.07 µM
- GI50 (MOLT-4 leukemia): 1560 nM
- TGI (MOLT-4 leukemia): 3.55 µM
- GI50 (NCI-H226 lung): 5.77 µM
- TGI (NCI-H226 lung): 17.9 µM
- GI50 (NCI-H23 lung): 9.53 µM
- TGI (NCI-H23 lung): 21.6 µM
- GI50 (NCI-H322M lung): 8.46 µM
- TGI (NCI-H322M lung): 21.4 µM
- GI50 (NCI-H460 NSCLC): 3.15 µM
- TGI (NCI-H460 NSCLC): 9.4 µM
- GI50 (NCI-H522 lung): 3.51 µM
- TGI (NCI-H522 lung): 10.6 µM
- GI50 (NCI/ADR-RES ovarian): 10.5 µM
- TGI (NCI/ADR-RES ovarian): 23 µM
- GI50 (OVCAR-3 ovarian): 10 µM
- TGI (OVCAR-3 ovarian): 21.7 µM
- GI50 (OVCAR-4 ovarian): 3.72 µM
- TGI (OVCAR-4 ovarian): 9.86 µM
- GI50 (OVCAR-5 ovarian): 11.8 µM
- TGI (OVCAR-5 ovarian): 24.6 µM
- GI50 (OVCAR-8 ovarian): 11.9 µM
- TGI (OVCAR-8 ovarian): 24.5 µM
- GI50 (PC-3 prostate): 6.67 µM
- TGI (PC-3 prostate): 18.9 µM
- GI50 (RPMI-8226 leukemia): 2350 nM
- TGI (RPMI-8226 leukemia): 6.39 µM
- GI50 (RXF 393 renal): 6.56 µM
- TGI (RXF 393 renal): 18.7 µM
- GI50 (SF-268 CNS): 9.97 µM
- TGI (SF-268 CNS): 21.9 µM
- GI50 (SF-295 CNS): 2820 nM
- TGI (SF-295 CNS): 8.47 µM
- GI50 (SF-539 CNS): 4.44 µM
- TGI (SF-539 CNS): 18 µM
- GI50 (SK-MEL-28 melanoma): 11.5 µM
- TGI (SK-MEL-28 melanoma): 23.7 µM
- GI50 (SK-MEL-5 melanoma): 4.55 µM
- TGI (SK-MEL-5 melanoma): 15.4 µM
- GI50 (SK-OV-3 ovarian): 8.96 µM
- TGI (SK-OV-3 ovarian): 21.1 µM
- GI50 (SN12C renal): 6.14 µM
- TGI (SN12C renal): 19.2 µM
- GI50 (SNB-19 CNS): 9.24 µM
- TGI (SNB-19 CNS): 21.7 µM
- GI50 (SNB-75 CNS): 14.1 µM
- TGI (SNB-75 CNS): 29.7 µM
- GI50 (SR leukemia): 1750 nM
- TGI (SR leukemia): 3.72 µM
- GI50 (SW-620 colon): 12.4 µM
- TGI (SW-620 colon): 25 µM
- GI50 (T-47D breast): 3.77 µM
- TGI (T-47D breast): 11.8 µM
- GI50 (TK-10 renal): 6.85 µM
- TGI (TK-10 renal): 20 µM
- GI50 (U251 glioblastoma): 6.92 µM
- TGI (U251 glioblastoma): 19.5 µM
- GI50 (UACC-257 melanoma): 4.42 µM
- TGI (UACC-257 melanoma): 14.2 µM
- GI50 (UACC-62 melanoma): 5.8 µM
- TGI (UACC-62 melanoma): 18.6 µM
- GI50 (UO-31 renal): 12.2 µM
- TGI (UO-31 renal): 24.9 µM

From PubChem BioAssay (NCI)
